Assay results published in PubChem BioAssay (NCI).
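Assay format: 96-well plates, 48-hour exposure. At the TGI there is no net growth.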

Assays:
Test in all cases: NCI-60 cell line screen, 48 h
[1] = tested on: NCI-H23 lung
[2] = tested on: COLO 205 colon
[3] = tested on: U251 CNS
[4] = tested on: A549 NSCLC
[5] = tested on: UACC-257 melanoma
[6] = tested on: TK-10 renal
[7] = tested on: ACHN renal
[8] = tested on: CAKI-1 renal
[9] = tested on: MDA-MB-231 breast
[10] = tested on: KM12 colon

Compound	TGI [1] [µM]	TGI [2] [µM]	TGI [3] [µM]	TGI [4] [µM]	TGI [5] [µM]	TGI [6] [µM]	TGI [7] [µM]	TGI [8] [µM]	TGI [9] [µM]	TGI [10] [µM]
O=C1CN(c2ccccc2)C(=O)C1C(=O)Nc1ccc(Cl)c(Cl)c1 (configuration not stated)	20.2	20.4	14.9	15.7	22.7	18.5	14.8			
CC1=[N+]([O-])C2(CCCC2)N(O)C1(C)C	> 100	> 100	> 100	> 100	> 100	> 100	> 100	> 100	> 100	> 100
CCOP(=O)(CC1OC(CO)C(O)C1O)OCC (configuration not stated)	> 64.1	> 100	> 100	> 100	> 100	> 100	> 100	> 100	> 100	> 100
O=C1CCCC2=C1CC1=C(CCCC1=O)N2c1ccc(-c2ccccc2)cc1	> 100	> 100	> 100	> 100	> 100	> 100	> 100	> 100	> 100	> 100
CN1C2CCC1C(CO)C(=O)C2 (configuration not stated)	> 100	32.8	> 100		> 100	59.3	> 100	> 100	> 100	> 100
CCc1nc2c([nH]1)C(=O)c1ccccc1C2=O	> 100		> 100	> 100	78	> 100	> 100	> 100		> 100
Cn1c(=O)c2[nH]c(Nc3cccc(Cl)c3)nc2n(C)c1=O	> 10	> 10		> 10	> 10	> 10		> 10	> 10	> 10
CN(C)C(=O)/N=C1\SC(=Nc2ccccc2)C(=Nc2ccccc2)N1c1ccc([N+](=O)[O-])cc1	> 100	> 100	> 100					> 100	> 100	> 100
C[C@@H](CCO)OC1OC(COC(=O)C(C)(C)C)C(OC(=O)C(C)(C)C)C(OC(=O)C(C)(C)C)C1OC(=O)C(C)(C)C (some centres not stated)	> 100	> 100	> 100	> 100	> 100	> 100	> 100	> 100	25.9	
O=c1n(CCCN2CCOCC2)nc2n1-c1ccc3ccccc3c1SC2		7.49	> 100	> 100	> 100	> 100		> 100		> 100
OCCN(CCO)c1ncnc2c1sc(=S)n2-c1ccccc1	> 100	> 100	> 100	> 100	> 100	> 100	> 100	> 100		> 100
CC(=O)N=S(NC(=O)c1ccc(C)cc1)C(Cl)(Cl)Cl (configuration not stated)	68.2	45.3	59.3	> 100	> 100	> 100	> 100		68	> 100
